Measured values reported in patent US20080181940A1, “Method For Accelerating Expression of CPT-1” (Amorepacific Corporation, priority 2003, published 2008).

Key:
[1] = system: obesity induced by high fat diet; experiment: Body weight and food consumption of rats on high fat diet, 8 weeks of dieting; format: in vivo, Sprague-Dawley white male rat; conditions: for Body weight after dieting: after 8 weeks, high fat diet + 0.2% of each substance in diet, n = 12; for increase of body weight compared with control group with high fat diet: words, 0.2% in high fat diet, 8 weeks
Description: In order to verify the effects of the present composition to the metabolism of lipid in the fat animals induced by dieting high fat diet, Sprague-Dawley white male rat model was selected. In order to verify the effects of genistein, diadzein and glycitein to the obesity induced from high fat diet, rats of 6 weeks old were adapted for a week and assigned 12 rats for each experimental group. Experimental groups are as follows: (1) normal fat diet; (2) high fat diet; (3) high fat diet+genistein 0.2%; (4) high fat diet+L-carnitine 0.2%; (5) high fat diet+genistein 0.2%+L-carnitine 0.2%; (6) high fat diet+diadzein 0.2%; (7) high fat diet+diadzein 0.2%+L-carnitine 0.2%; (8) high fat diet+glycitein 0.2%; and (9) high fat diet+glycitein 0.2%+L-carnitine 0.2%, and the rats were […] for 8 weeks. […] The amount of diet consumed and body weight was measure three times per week during dieting.

[2] = system: adipocytes of male SD rat; experiment: Acceleration of oxidation of neutral fat in adipocytes (glycerol released into the medium); format: cell-based; conditions: added in 10 μmol unit, control = 100%, FIG. 1
Procedure: Epididymal adipose tissues obtained from male SD rat were cut to small pieces, and 0.1% of collagenase (in DMEM without phenol red) was added then cultured for 2 hours at 37° C., and then filtered to obtain adipocyte.
A control was cultured in a medium not containing the composition of the present invention (experimental material). In the experimental samples, genistein and/or L-carnitine was added in 10 μmol unit. Results are calculated relatively converting the control to be 100%. Degrees of oxidation of fats are determined by measuring the concentration of glycerol separated into the medium from the adipocytes.
Experiments were performed by taking cell cultures prepared by adding colorless DMEM (Dulbeco's modified eagles medium) containing 0.5% bovine serum albumin (BAS) without fatty acid to the adipocytes. The amount of glycerol was measured with color reaction method using GPO-trinder kit purchased from Sigma (St. Louis, Mo., U.S.A) and absorption in 540 nm was measured with ELISA reader.

[3] = system: obesity induced by high fat diet; experiment: Weight of epididymal adipose tissue of rats after 8 weeks of high fat diet; format: in vivo, Sprague-Dawley white male rat; conditions: for Weight of epididymal adipose: after 8 weeks, high fat diet + 0.2% of each substance in diet, n = 12; for weight of epididymal adipose compared with control group with high fat diet: words, 0.2% in high fat diet, 8 weeks
Description: In order to verify the effects of the present composition to the metabolism of lipid in the fat animals induced by dieting high fat diet, Sprague-Dawley white male rat model was selected. In order to verify the effects of genistein, diadzein and glycitein to the obesity induced from high fat diet, rats of 6 weeks old were adapted for a week and assigned 12 rats for each experimental group. Experimental groups are as follows: (1) normal fat diet; (2) high fat diet; (3) high fat diet+genistein 0.2%; (4) high fat diet+L-carnitine 0.2%; (5) high fat diet+genistein 0.2%+L-carnitine 0.2%; (6) high fat diet+diadzein 0.2%; (7) high fat diet+diadzein 0.2%+L-carnitine 0.2%; (8) high fat diet+glycitein 0.2%; and (9) high fat diet+glycitein 0.2%+L-carnitine 0.2%, and the rats were dieted for 8 weeks. Basic experimental diet was purified AIN-93G diet, and high fat diet was prepared to have fat occupy 36% of the total energy (18% of the total diet), normal fat diet was prepared to have fat occupy 17% of the total energy (7% of the total diet).
After 8 weeks of dieting with the groups of normal fat diet, high fat diet, high fat diet+genistein (0.2%), high fat diet+L-carnitine (0.2%), high fat diet+genistein (0.2%)+L-carnitine (0.2%), high fat diet+diadzein (0.2%), high fat diet+diadzein (0.2%)+L-carnitine (0.2%), high fat diet+glycitein (0.2%) and high fat diet+glycitein (0.2%)+L-carnitine (0.2%), the rats were sacrificed to obtain epididymal adipose tissues. The above obtained epididymal adipose tissues were washed with saline and moistures were removed on a filter bed, then weights were measured.

[4] = cited from earlier work
CPT-1 = experiment: Expression of CPT-1 mRNA in liver by northern blotting and densitometry; format: in vivo, rat; conditions: 8 weeks
Description: After 8 weeks of dieting with following four (4) groups of high fat diet, high fat diet+genistein (0.2%), high fat diet+genistein (0.2%)+L-carnitine (0.2%) and high fat diet+genistein (0.4%), the rats were sacrificed to obtain liver tissues thereof. After homogenizing the liver tissues, RNA were extracted from the tissues using TRIZOL (Life Technologies, grand Island, N.Y., USA) consisting of phenol and guanidine isothiocyanate. Degree of expression of CPT-1 mRNA from the above extracted RNA was measured by northern blotting test, and expressed quantitatively by densitometry as shown in FIGS. 2a and 2b.

Row | Structure (SMILES) | Body weight after dieting [1] | increase of body weight compared with control group with high fat diet [1] | oxidation of fatty acids increased compared with that of the control [2] | Weight of epididymal adipose [3] | weight of epididymal adipose compared with control group with high fat diet [3] | side effects of an excessive quantity, female rats ([4]; female rats) | side effects of an excessive quantity, male rats ([4]; male rats) | expression of CPT-1 compared with the group of high fat diet (CPT-1; 0.2% of each substance in high fat diet, FIG. 2b) | dependence of the expression of CPT-1 on concentration (CPT-1; genistein 0.2% vs 0.4% in high fat diet)
1 | C[N+](C)(C)CC(O)CC(=O)[O-] [L-carnitine, β-hydroxy-γ-trimethylammonium butyric acid] | 465.1 ± 31.8 g | almost the same | 2.07 times | 7.9 ± 0.45 g | almost the same |  |  |  | 
2 | O=c1c(-c2ccc(O)cc2)coc2cc(O)ccc12 [diadzein] | 441.3 ± 19.4 g | also small |  | 6.1 ± 0.35 g | also small |  |  |  | 
3 | O=c1c(-c2ccc(O)cc2)coc2cc(O)cc(O)c12 [genistein] | 433.5 ± 19.4 g | small | 1.92 times | 5.2 ± 0.67 g | small | disorder of secretion | reduction of spermatozoa and sperm | increased | increases positively according to the concentration of genistein
4 | COc1cc2c(=O)c(-c3ccc(O)cc3)coc2cc1O [glycitein] | 446.4 ± 21.6 g | also small |  | 6.3 ± 0.41 g | also small |  |  |  | 
